# Results as given in patent US6469146B1, “Radiopharmaceutical products suitable for the selective labeling of lymphocytes, and their preparation” (Cis Bio International, priority 2000, dated 2002).
# Assays:
# whole blood = assay: Cell separation on whole blood (Polymorphprep gradient), activity in separated fractions; format: cell-based, human; design: tested at 2 mCi (74 MBq) in 3 mL blood; conditions: for Cell separation on whole blood (activity %): Polymorphprep: fraction: Polymorphprep gradient; for Cell separation on whole blood (activity %): Erythrocytes: fraction: erythrocytes; for Cell separation on whole blood (activity %): Leukocytes: fraction: leukocytes; for Cell separation on whole blood (activity %): Medium: fraction: medium
# Protocol: (§1) The radiopharmaceuticals of table I (2 mCi; 74 MBq) are incubated in 3 mL of a fresh sample of human blood for 10 minutes under slow shaking. The blood composition depends upon each sample taken from healthy volunteers (average composition: 1.6±0.3.10^10 Red Globules (RG) and 2.2±0.3.10^7 White Globules (WG) with 1.2±0.3.10^7 Polymorphs (57±9%) and 0.7±0.3.10^7 Lymphocytes (35±4%)]. Non-bound radioactivity is removed by successive washings (2×10 mL of RPMI culture medium 1640) of 10 minutes at 600 g. The yield of cell labeling is determined in a CAPINTEC CRC 120 activimeter. Cell viability is controlled by the Trypan blue exclusion test.
# (§2) The results obtained, namely the labeling yield (Yield) and the percentages of activity in the separated fractions are given in tables 3 to 5.
# In a first experiment, a separation of the blood constituents is made on a double density Polymorphprep® gradient.
# Whole blood from healthy volunteers is labeled with 2 mCi of [^99mTc(ArCS3)2(ArCS2)] following the method described above. The blood constituents are then separated by the Polymorphprep® double density gradient into two separate fractions: lymphocytes and polymorphs/erythrocytes. The whole blood, diluted in 2-3 mL RPMI, is initially delicately placed on the Polymorphprep® gradient and then centrifuged (300 g, 20 min, 37° C.). […] Counting is made on each fraction using a MAXM Y07 00 367 counter in order to confirm cell constitution.
# human blood = assay: Labeling of blood cells: yield of cell labeling in whole blood; format: cell-based; conditions: 2 mCi (74 MBq) in 3 mL fresh human blood, 10 minutes, after washings
# Protocol: as §1, §2
Structure (SMILES),Cell separation on whole blood (activity %): Polymorphprep (whole blood) [%],Cell separation on whole blood (activity %): Erythrocytes (whole blood) [%],Cell separation on whole blood (activity %): Leukocytes (whole blood) [%],Cell separation on whole blood (activity %): Medium (whole blood) [%],Yield (±3%) of cell labeling (human blood) [%]
"Cc1ccc(C(=S)S[S][99Tc]([S]SC(=S)c2ccc(C)cc2)[S]C(=S)c2ccc(C)cc2)cc1 [Example 5, [^99mTc(4-MePhCS3)2(4-MePhCS2)]]",3,17,80,0,98
"Cc1ccc(C(=S)S[S][99Tc]([S]SC(=S)c2ccc(C)cc2)[S]C(=S)c2ccc(C)cc2)cc1 [Example 6, [^99mTc(4-MePhCS3)2(4-MePhCS2)]]",2,20,78,–,95
"CCc1ccc(C(=S)S[S][99Tc]([S]SC(=S)c2ccc(CC)cc2)[S]C(=S)c2ccc(CC)cc2)cc1 [Example 7, [^99mTc(4-EtPhCS3)2(4-EtPhCS2)]]",3,12,83,2,93
"CCc1ccc(C(=S)S[S][99Tc]([S]SC(=S)c2ccc(CC)cc2)[S]C(=S)c2ccc(CC)cc2)cc1 [Example 8, [^99mTc(4-EtPhCS3)2(4-EtPhCS2)]]",–,14,85,1,99
"CCc1ccccc1C(=S)S[S][99Tc]([S]SC(=S)c1ccccc1CC)[S]C(=S)c1ccccc1CC [Example 9, [^99mTc(2-EtPhCS3)2(2-EtPhCS2)]]",2,24,72,2,72
"CCc1ccccc1C(=S)S[S][99Tc]([S]SC(=S)c1ccccc1CC)[S]C(=S)c1ccccc1CC [Example 10, [^99mTc(2-EtPhCS3)2(2-EtPhCS2)]]",2,22,76,2,92
"CCCCc1ccc(C(=S)S[S][99Tc]([S]SC(=S)c2ccc(CCCC)cc2)[S]C(=S)c2ccc(CCCC)cc2)cc1 [Example 11, [^99mTc(4-nBuPhCS3)2(4-nBuPhCS2)]]",1,53,46,–,97
"CCCCc1ccc(C(=S)S[S][99Tc]([S]SC(=S)c2ccc(CCCC)cc2)[S]C(=S)c2ccc(CCCC)cc2)cc1 [Example 12, [^99mTc(4-nBuPhCS3)2(4-nBuPhCS2)]]",4,29,66,1,100
"CCOc1ccc(C(=S)S[S][99Tc]([S]SC(=S)c2ccc(OCC)cc2)[S]C(=S)c2ccc(OCC)cc2)cc1 [Example 13, [^99mTc(4-EtOPhCS3)2(4-EtOPhCS2)]]",1,29,70,–,99
"CCOc1ccc(C(=S)S[S][99Tc]([S]SC(=S)c2ccc(OCC)cc2)[S]C(=S)c2ccc(OCC)cc2)cc1 [Example 14, [^99mTc(4-EtOPhCS3)2(4-EtOPhCS2)]]",3,22,75,–,97
"COc1cccc(C(=S)S[S][99Tc]([S]SC(=S)c2cccc(OC)c2)[S]C(=S)c2cccc(OC)c2)c1 [Example 15, [^99mTc(3-MeOPhCS3)2(3-MeOPhCS2)]]",2,25,73,–,99
"COc1cccc(C(=S)S[S][99Tc]([S]SC(=S)c2cccc(OC)c2)[S]C(=S)c2cccc(OC)c2)c1 [Example 16, [^99mTc(3-MeOPhCS3)2(3-MeOPhCS2)]]",2,16,79,3,98
"Oc1ccc(C(=S)S[S][99Tc]([S]SC(=S)c2ccc(O)cc2)[S]C(=S)c2ccc(O)cc2)cc1 [Example 17, [^99mTc(4-OHPhCS3)2(4-OHPhCS2)]]",1,12,85,2,93
"Oc1ccc(C(=S)S[S][99Tc]([S]SC(=S)c2ccc(O)cc2)[S]C(=S)c2ccc(O)cc2)cc1 [Example 18, [^99mTc(4-OHPhCS3)2(4-OHPhCS2)]]",3,7,89,1,93
"Fc1ccc(C(=S)S[S][99Tc]([S]SC(=S)c2ccc(F)cc2)[S]C(=S)c2ccc(F)cc2)cc1 [Example 19, [^99mTc(4-FPhCS3)2 (4-FPhCS2)]]",4,15,80,1,99
"Fc1ccc(C(=S)S[S][99Tc]([S]SC(=S)c2ccc(F)cc2)[S]C(=S)c2ccc(F)cc2)cc1 [Example 20, [^99mTc(4-FPhCS3)2 (4-FPhCS2)]]",4,12,84,–,91
"Cc1cc(C)c(C(=S)S[S][99Tc]([S]SC(=S)c2cc(C)c(C)cc2C)[S]C(=S)c2cc(C)c(C)cc2C)cc1C [Example 21, [^99mTc(2,4,5-Me3PhCS3)2(2,4,5-Me3PhCS2)]]",2,15,82,1,90
"Cc1cc(C)c(C(=S)S[S][99Tc]([S]SC(=S)c2cc(C)c(C)cc2C)[S]C(=S)c2cc(C)c(C)cc2C)cc1C [Example 22, [^99mTc(2,4,5-Me3PhCS3)2(2,4,5-Me3PhCS2)]]",2,20,78,–,95
"S=C(S[S][99Tc]([S]SC(=S)c1cccc2ccccc12)[S]C(=S)c1cccc2ccccc12)c1cccc2ccccc12 [Example 23, [^99mTc(1-naphCS3)2(1-naphCS2)]]",5,46,43,6,71
"S=C(S[S][99Tc]([S]SC(=S)c1cccc2ccccc12)[S]C(=S)c1cccc2ccccc12)c1cccc2ccccc12 [Example 24, [^99mTc(1-naphCS3)2(1-naphCS2)]]",–,46,53,1,74
"S=C(Cc1ccccc1)S[S][99Tc]([S]SC(=S)Cc1ccccc1)[S]C(=S)Cc1ccccc1 [Example 27, [^99mTc(PhCH2CS3)2(PhCH2CS2)]]",10,11,77,1,88
"S=C(CCc1ccccc1)S[S][99Tc]([S]SC(=S)CCc1ccccc1)[S]C(=S)CCc1ccccc1 [Example 28, [^99mTc(PhCH2CH2CS3)2(PhCH2CH2CS2)]]",2,16,80,2,91
"S=C(CCc1ccccc1)S[S][99Tc]([S]SC(=S)CCc1ccccc1)[S]C(=S)CCc1ccccc1 [Example 29, [^99mTc(PhCH2CH2CS3)2(PhCH2CH2CS2)]]",6,58,35,1,43
